Results as given in US8709764B2, “Enzymatic demethylation of flavonoids” (Universiteit Gent, priority 2005, dated 2014).

Biological target: T1, human estrogen receptor (ERα) (Homo sapiens, UniProt P03372)
T1 construct: expressed in transfected cells; host or cells: Saccharomyces cerevisiae
T1 sequence (P03372 1-595): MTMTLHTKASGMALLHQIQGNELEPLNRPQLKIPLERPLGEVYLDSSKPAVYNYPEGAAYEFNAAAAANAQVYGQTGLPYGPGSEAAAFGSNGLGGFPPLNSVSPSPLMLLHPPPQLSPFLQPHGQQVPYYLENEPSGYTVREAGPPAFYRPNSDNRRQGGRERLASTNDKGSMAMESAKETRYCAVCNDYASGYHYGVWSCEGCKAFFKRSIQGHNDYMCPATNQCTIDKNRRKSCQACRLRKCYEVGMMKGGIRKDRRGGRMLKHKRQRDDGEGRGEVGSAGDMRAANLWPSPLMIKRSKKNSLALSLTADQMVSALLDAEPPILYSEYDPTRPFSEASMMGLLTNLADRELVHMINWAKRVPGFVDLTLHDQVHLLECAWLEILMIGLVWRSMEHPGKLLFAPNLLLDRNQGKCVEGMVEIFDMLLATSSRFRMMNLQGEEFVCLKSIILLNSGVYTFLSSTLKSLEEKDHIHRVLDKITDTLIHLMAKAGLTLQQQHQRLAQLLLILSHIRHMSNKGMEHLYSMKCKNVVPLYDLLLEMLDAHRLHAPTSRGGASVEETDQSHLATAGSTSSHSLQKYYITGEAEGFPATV
Assay: Yeast Estrogenic Screen of extracts of fecal culture incubations with IX
Format: cell-based
Procedure: The capacity of the cultures obtained from fecal samples A, B, C and D (further referred as cultures A-D) to degrade or transform the hop prenylflavonoid IX was tested by incubating the fecal cultures (10% (v/v)) in Brain Heart Infusion broth (with 0.5 g/l cystein-HCl) with 25 mg/l of isoxanthohumol for a period of 8 days under anaerobic conditions. Extracts of the incubations at days 0 and 8 were assayed for bioactive transformation products of IX using a Yeast Estrogenic Screen, according to De Boever et al. (2001) Env. Health Perspectives 109, 691-697, based on Routledge & Sumpter (1996) Environ. Toxicol. Chem. 15, 241-248. In brief, Saccharomyces cerevisiae, was transformed with the human estrogen receptor (ERα) gene, together with expression plasmids containing responsive elements and the lacZ reporter gene (encoding the enzyme β-galactosidase). β-galactosidase activity is quantified at 540 nm by the conversion of the chromogenic substance chlorophenol red-β-D-galactopyranoside into chlorophenol red. The bioassay response is expressed as the absorbance at 540 nm divided by the optical density at 630 nm [(A540/A630)net]. The estrogenic activity of the samples was expressed as percentage equivalence to 10 nM estradiol (E2) which elicited a 100% response in the estrogen receptor bioassay. […]

In the case of COc1cc(O)c(CC=C(C)C)c2c1C(=O)C[C@@H](c1ccc(O)cc1)O2 [IX, 5-O-methyl-8-prenylnaringenin], the “Estrogenic response of incubation extracts” value (fecal culture C incubated with 25 mg/l IX, after 8 days) is reported as “strong increase in the estrogenic properties” and the “Estrogenic response of incubation extracts” value (fecal cultures A-D incubated with 25 mg/l IX, day 0) is reported as “None of the incubations showed an estrogenic response”.
